Test results from patent US7338950B2, “Amide compounds as ion channel ligands and uses thereof” (Renovis, Inc., priority 2003, dated 2008).
pIC50: −log10 of the molar value.

How the values were obtained:
[1] = Plasma protein binding, equilibrium dialysis, human plasma; type: in vitro ADME; conditions: human plasma (sodium citrate), pH 7.4, 37° C., at least 22 hours, read-out: human plasma protein binding (% Bound)
Experimental: Membranes from Harvard/Amika with a molecular weight cutoff of 5,000 were rinsed with dH2O then placed in pH 7.4 PBS supplied by Gibco. The membranes were allowed to soak for 1 hour. A stock of the test article was pooled with Warfarin, Atropine at 2 mM in DMSO. The test article was then dosed into human plasma in sodium citrate, Rat Plasma, and Mouse Plasma to a final 10 μM concentration (0.5% DMSO v/v). The pre-soaked membranes were then placed into dialysis chambers. 500 μL of PBS was added to one side of the chamber, and 500 μL of the Matrix containing the test article was added to the other side of the chamber.
The chambers were then placed into an enclosed, heated rocker, which was pre-warmed to 37° C. and allowed to reach equilibrium for at least 22 hours. After 22 hours both sides were sampled. 100 μL of the donor side was added to 500 μL of PBS. 100 μL of the PBS side was added to 20 μL of fresh matrix. Samples then were crashed with 1:1 Acetonitrile and centrifuged at 10,000 RPM for 10 minutes. […]
Standards were prepared in a 1:5 plasma: PBS mixture at 5, 1.5, 0.5, 0.15, 0.05, 0.015 and 0.005 μM concentrations. […] Protein binding values were calculated as follows: % Bound=[(Concentration in Donor−Concentration in Receiver)/(Concentration in Donor)]×100. % Recovery=[(Concentration in donor+Concentration in Receiver)]/(Concentration in Normal Initial)]×100

[2] = Pharmacokinetic profile after intravenous and oral administration; type: in vivo; conditions: male, Sprague-Dawley, rat, plasma, rats
Experimental: The pharmacokinetic profile of Compound 18 was evaluated following intravenous and oral administration in rats. Sprague-Dawley male rats obtained from Charles River, San Diego, Calif. were acclimated for 24 hours.
Compound 18 was formulated at a concentration of 0.5 mg/mL for IV administration at a 1 mg/kg dose and 1 mg/mL for oral administration at a 5 mg/kg dose. All animals were weighed before dosing. The body weight was used to calculate the actual dose for each animal. The intravenous dose was administered through the jugular vein catheter in less than 1 minute. The oral dose volume was 1.5 mL for all PO rats administered through oral lavage.
For IV dosing, blood samples were collected using a pre-heparinized syringe via the carotid artery catheter before dosing and at t=2, 5, 15, 30, 60, 120, 180, 360, and 480 minutes post dosing. For PO dosing, blood samples were collected using a pre-heparinized syringe via the carotid artery catheter before dosing and at t=5, 15, 30, 60, 120, 180, 360, and 480 minutes post dosing. 250 uL of blood was obtained at each time point from each animal. Equal volumes of 0.9% normal saline were replaced to prevent dehydration. The whole blood samples were maintained on ice until centrifugation. Blood samples were centrifuged at 14,000 rpm for 10 minutes at 4° C., and the upper plasma layer was transferred into a clean vial and store at −80° C.

[3] = biological target: T1, VR1 receptor (capsaicin induced current in dorsal root ganglion (DRG) neurons) (Rattus norvegicus, UniProt O35433); test: Whole-cell patch clamp electrophysiology, capsaicin induced current in DRG neurons; type: cell-based; conditions: DRG neuron; 100 nM, treatment time 20 seconds; 500 nM capsaicin, rat DRG neurons
T1 construct: Dorsal root ganglion (DRG) neurons were recovered from either neonatal or adult rats; endogenous in cells; host or cells: primary rat dorsal root ganglion neurons
T1 sequence (O35433 whole entry): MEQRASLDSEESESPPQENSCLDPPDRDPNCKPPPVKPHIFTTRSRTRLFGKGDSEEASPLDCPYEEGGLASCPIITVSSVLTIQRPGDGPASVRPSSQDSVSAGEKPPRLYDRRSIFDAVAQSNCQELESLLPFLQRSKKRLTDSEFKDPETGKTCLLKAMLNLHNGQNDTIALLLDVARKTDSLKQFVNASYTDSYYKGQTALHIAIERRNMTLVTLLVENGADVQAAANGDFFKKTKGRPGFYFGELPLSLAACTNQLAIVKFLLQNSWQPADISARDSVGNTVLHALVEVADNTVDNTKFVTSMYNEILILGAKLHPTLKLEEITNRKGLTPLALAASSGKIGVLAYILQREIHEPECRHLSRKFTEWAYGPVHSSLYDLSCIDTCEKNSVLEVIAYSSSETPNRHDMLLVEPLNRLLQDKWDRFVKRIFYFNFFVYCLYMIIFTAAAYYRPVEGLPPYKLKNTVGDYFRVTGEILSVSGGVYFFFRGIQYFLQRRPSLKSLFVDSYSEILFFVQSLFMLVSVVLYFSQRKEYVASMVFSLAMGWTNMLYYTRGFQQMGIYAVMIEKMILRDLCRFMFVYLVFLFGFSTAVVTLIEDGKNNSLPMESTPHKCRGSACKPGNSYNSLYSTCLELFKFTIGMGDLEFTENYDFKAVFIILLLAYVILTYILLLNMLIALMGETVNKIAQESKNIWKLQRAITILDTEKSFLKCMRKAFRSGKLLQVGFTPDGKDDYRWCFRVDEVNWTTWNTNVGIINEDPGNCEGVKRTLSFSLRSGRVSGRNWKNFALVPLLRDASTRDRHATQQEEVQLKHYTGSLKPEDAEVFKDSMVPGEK
Experimental: Dorsal root ganglion (DRG) neurons were recovered from either neonatal or adult rats and plated onto poly-D-lysine coated glass coverslips. The plated neurons were transferred into a chamber to allow drug solutions to be added to the cells using a computer-controlled solenoid-valve based perfusion system. The cells were imaged using standard DIC optics. Cells were patched using finely-pulled glass electrodes. Voltage-clamp electrophysiology experiments were carried out using an Axon Instruments Multiclamp amplified controlled by pCLAMP8 software.
The cells were placed into a whole-cell voltage clamp and help at a voltage of −80 mV while monitoring the membrane current in gap-free recording mode. 500 nM capsaicin was added for 30 seconds as a control. Test compounds at various concentrations at ranging from (10-1000 nM) were added to the cells for 1 minute prior to a 30 second capsaicin application. Differences between control experiments and drug positive capsaicin experiments were used to determine the efficacy of each test compound. All compounds that inhibited capsaicin induced current greater than 50% were considered positives.

[4] = biological target: T2, CYP1A2 (Homo sapiens, UniProt P05177); test: Cytochrome p450 inhibition assessment, CYP1A2; type: biochemical; conditions: estimated, Hill equation fit
T2 sequence (P05177 1-516): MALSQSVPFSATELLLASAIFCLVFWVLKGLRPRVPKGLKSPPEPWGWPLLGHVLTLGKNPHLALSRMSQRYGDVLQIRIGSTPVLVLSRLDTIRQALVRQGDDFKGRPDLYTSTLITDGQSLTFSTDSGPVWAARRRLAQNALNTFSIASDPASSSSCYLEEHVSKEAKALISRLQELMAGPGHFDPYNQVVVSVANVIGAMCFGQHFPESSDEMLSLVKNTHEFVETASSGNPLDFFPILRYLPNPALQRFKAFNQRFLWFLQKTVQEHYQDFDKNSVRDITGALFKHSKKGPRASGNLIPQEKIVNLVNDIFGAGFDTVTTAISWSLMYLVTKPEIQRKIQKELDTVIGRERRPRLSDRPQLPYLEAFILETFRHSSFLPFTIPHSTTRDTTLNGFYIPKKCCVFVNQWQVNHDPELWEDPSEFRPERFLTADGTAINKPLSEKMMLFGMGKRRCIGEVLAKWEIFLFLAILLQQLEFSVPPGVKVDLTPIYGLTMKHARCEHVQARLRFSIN
Experimental: (§1) The ability of test compounds to inhibit five major human cytochrome p450 isozymes was evaluated. Cytochrome p450 inhibition assays were performed on 96-well microtiter assay plates according to the protocols described in Gentest P450 inhibition instruction manuals. The assays were performed in duplicate at 8 concentrations with the upper concentration of 100 μM followed by a 1:3 serial dilution. Reactions were initiated by the addition of 100 μL of enzyme/substrate mix to 100 μL of cofactor/serial dilution mix, and terminated by addition of 75 μL of a 4:1 acentonitrile: 0.5 M Tris base solution or by 2N NaOH for CYP3A4/DBF. Fluorescence was measured using a fluorescence plate reader (FLUOstar model 403, BMG Lab Technologies, Durham, N.C.). For reactions with inhibition greater than 50%, IC50 values were determined by fitting the data to the Hill equation using software GraphPad Prism (Version 4.02, GraphPad Software, San Diego, Calif.).

[5] = biological target: CYP2C19 (Homo sapiens, UniProt P33261); test: Cytochrome p450 inhibition assessment, CYP2C19; type: biochemical; conditions: estimated, Hill equation fit
CYP2C19, sequence (P33261 whole entry): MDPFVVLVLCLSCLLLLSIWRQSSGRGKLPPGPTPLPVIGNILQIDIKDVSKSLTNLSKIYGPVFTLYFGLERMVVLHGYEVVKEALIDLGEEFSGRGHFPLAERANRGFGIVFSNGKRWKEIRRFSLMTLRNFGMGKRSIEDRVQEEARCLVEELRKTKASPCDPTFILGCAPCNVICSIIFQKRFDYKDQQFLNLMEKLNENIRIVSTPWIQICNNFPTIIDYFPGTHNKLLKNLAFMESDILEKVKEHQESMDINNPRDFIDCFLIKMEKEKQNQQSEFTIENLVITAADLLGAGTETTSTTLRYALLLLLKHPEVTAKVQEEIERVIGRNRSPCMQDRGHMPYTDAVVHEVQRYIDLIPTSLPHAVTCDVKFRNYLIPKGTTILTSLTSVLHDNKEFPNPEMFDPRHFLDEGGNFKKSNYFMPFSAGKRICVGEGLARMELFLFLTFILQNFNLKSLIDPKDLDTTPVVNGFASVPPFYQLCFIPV
Experimental: as §1

[6] = route not stated (IV 1 mg/kg, PO 5 mg/kg)

- fraction unbound at 22 h, 10 µM [1]: < 0.002
- bioavailability ([2]; PO 5 mg/kg vs IV 1 mg/kg, read-out: Oral Bioavailability (% F)): 30.1%
- Cmax [2, 6]: 1750 nM
- Tmax [2, 6]: 3 h
- clearance ([2]; route not stated (IV 1 mg/kg, PO 5 mg/kg), read-out: Clearance (Cl) (converted)): 8.83 mL/min/kg
- Vd ([2]; route not stated (IV 1 mg/kg, PO 5 mg/kg), read-out: Volume of distribution (Vd)): 2.82 L/kg
- half-life ([2]; route not stated (IV 1 mg/kg, PO 5 mg/kg), read-out: half life (t½) (converted)): 3.71 h
- inhibition at 0.1 µM [3]: < 75%
- pIC50 [4]: 4.01
- pIC50 [5]: 4.57
SMILES: COc1ccc(CCNC(=O)c2ccc(-c3ncccc3Cl)cc2)cc1OC [Compound 18]
